Data as given in publication PMC10112131, “Pharmacological Elevation of Cellular Dihydrosphingomyelin Provides a Novel Antiviral Strategy against West Nile Virus Infection” (Antimicrobial Agents and Chemotherapy, 2023).
Where “and” joins values, the source holds several entries; their conditions need not be identical. Identical values can stand only once. Entries after “also recorded” stand apart in the source; their conditions may differ. Like-named read-outs stand apart in the source and are kept apart here.

Columns and labels:
[1] = test system: West Nile virus (WNV); test: microbe, parasite or virus in culture; details: Vero, 24 h, read-out: EC50 WNV
[2] = in vitro; details: African green monkey
[3] = test system: West Nile virus (WNV); details: Vero cells; for WNV infection: Fig 7
[4] = test system: vesicular stomatitis virus (VSV)
[5] = test system: WNV RVPs; test: Entry of WNV reporter virus particles (RVPs) into Vero cells, flow cytometry; type: cell-based, West Nile virus; details: Vero pretreated 24 h, read 48 h p.i.
[6] = test system: Zika virus (ZIKV); details: Vero cells
[7] = test system: Vero cells; details: for CC50: read-out: CC50 in uninfected cells, 48-h treatment, Vero cells, ATP, 48 h
[8] = test system: West Nile virus (WNV); test: microbe, parasite or virus in culture; details: SH-SY5Y, 24 h, read-out: EC50 WNV
[9] = test system: dengue virus (DENV-2); details: Vero cells
[10] = in vitro; details: human
[11] = test system: Vero cells; details: low density, 24 h
[12] = test system: West Nile virus (WNV); test: Specific infectivity of WNV progeny released from treated Vero cells; type: cell-based; details: vs vehicle
[13] = test system: Vero cells; test: Lipidomics of treated Vero cells by mass spectrometry; type: cell-based; details: 10 μM, 24 h; for Level of dihydrosphingomyelins (dhSMs): relative to control; for dhSM/SM ratio: vs vehicle, almost all dhSMs analyzed
[14] = molecular target: T1, ceramide desaturase (Des1) (Homo sapiens, UniProt O15121)
T1 sequence (O15121 1-323): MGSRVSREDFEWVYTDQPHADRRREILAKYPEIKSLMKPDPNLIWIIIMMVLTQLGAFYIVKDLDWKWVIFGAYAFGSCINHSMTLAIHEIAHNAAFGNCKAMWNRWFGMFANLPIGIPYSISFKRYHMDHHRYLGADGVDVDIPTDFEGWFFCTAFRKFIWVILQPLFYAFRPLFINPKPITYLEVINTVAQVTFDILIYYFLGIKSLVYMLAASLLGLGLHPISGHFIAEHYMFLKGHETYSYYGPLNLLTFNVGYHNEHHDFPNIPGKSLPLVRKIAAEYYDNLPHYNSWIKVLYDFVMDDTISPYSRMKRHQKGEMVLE

[15] = test system: dengue virus (DENV-2); test: microbe, parasite or virus in culture; details: DENV2, Vero, 48 h, read-out: EC50 DENV-2
[16] = test system: coxsackievirus B5 (CVB5); test: microbe, parasite or virus in culture; type: cell-based, CVB5 Faulkner; details: for EC50: Enterovirus B, Vero, 24 h; for Antiviral efficacy against CVB5: Vero cells
[17] = test system: West Nile virus (WNV); details: SH-SY5Y cells
[18] = test system: Usutu virus (USUV); details: Vero cells
[19] = test system: Usutu virus (USUV); test: microbe, parasite or virus in culture; details: Vero, 24 h, read-out: EC50 USUV
[20] = test system: vesicular stomatitis virus (VSV); test: microbe, parasite or virus in culture; details: Vero, 24 h, read-out: EC50 VSV
[21] = test system: Zika virus (ZIKV); test: microbe, parasite or virus in culture; details: Vero, 24 h, read-out: EC50 ZIKV

CCCCCCCCOC(=O)c1cc(O)c(O)c(O)c1 [AL-071]
EC50 [1]: 1400 nM | CC50 [2]: 9.2 µM | SI (CC50/EC50) WNV [3]: 6.6

O=C(OCCCCCCCCOC(=O)c1cc(O)c(O)c(O)c1)c1cc(O)c(O)c(O)c1 [AL-072]
EC50 [1]: 3900 nM | CC50 [2]: 23.2 µM | SI (CC50/EC50) WNV [3]: 5.9

O=C(OCCCCCCCCCCCCOC(=O)c1cc(O)c(O)c(O)c1)c1cc(O)c(O)c(O)c1 [AL-085]
EC50 [1]: 200 nM | CC50 [2]: 5 µM | SI (CC50/EC50) WNV [3]: 25.0

O=C(NCCCCCCCCCCCCNC(=O)c1cc(O)c(O)c(O)c1)c1cc(O)c(O)c(O)c1 [AL-088, N,N′-(dodecane-1,12-diyl)bis(3,4,5-trihydroxybenzamide)]
SI (CC50/EC50) VSV [4]: >4.0 | Number of cells infected with RVPs [5]: significantly reduced the number of infected cells | SI (CC50/EC50) ZIKV [6]: >14.9 | CC50 [7]: > 100 µM | EC50 [1]: 2200 nM | EC50 [8]: 2200 nM | CC50 [2]: > 100 µM | SI (CC50/EC50) DENV-2 [9]: >13.9 | CC50 [10]: 87.6 µM | Effect on proliferation of Vero cells [11]: only cytostatic effects on Vero cells at high concentrations | Specific infectivity of released WNV particles [12]: significant reduction in their infectivity | Level of dihydroceramides (dhCers) [13]: Significantly elevated levels | Level of sphingomyelins (SMs) [13]: slight reductions | Level of dihydrosphingomyelins (dhSMs) [13]: significant increase | dhSM/SM ratio [13]: significantly increased | IC50 [14]: 1 µM | EC50 [15]: 7.2 µM | Mean virus yield CVB5 [16]: 8.58E+07 PFU/mL and 7.12E+07 PFU/mL and 6.85E+07 PFU/mL and 8.01E+07 PFU/mL and 6.45E+07 PFU/mL and 7.26E+07 PFU/mL and 7.43E+07 PFU/mL and 8.33E+07 PFU/mL | EC50 [16]: > 100 µM | Antiviral efficacy against CVB5 [16]: undetectable; also recorded: no antiviral activity was observed | SI (CC50/EC50) WNV [17]: 39.8 | SI (CC50/EC50) USUV [18]: >125 | EC50 [19]: 800 nM | EC50 [20]: 25.3 µM | EC50 [21]: 6.7 µM | SI (CC50/EC50) WNV [3]: >45.0

O=C(NCCCCCCCCCCCCNC(=O)c1ccc(O)c(O)c1O)c1ccc(O)c(O)c1O [AL-274]
SI (CC50/EC50) VSV [4]: >2.3 | Number of cells infected with RVPs [5]: significantly reduced the number of infected cells | SI (CC50/EC50) ZIKV [6]: >47.6 | CC50 [7]: > 100 µM | EC50 [1]: 240 nM | EC50 [8]: 1900 nM | CC50 [2]: > 100 µM | SI (CC50/EC50) DENV-2 [9]: >10.8 | CC50 [10]: 38.9 µM | Effect on proliferation of Vero cells [11]: only cytostatic effects on Vero cells at high concentrations | Specific infectivity of released WNV particles [12]: significant reduction in their infectivity | Level of dihydrosphingomyelins (dhSMs) [13]: significant increase | dhSM/SM ratio [13]: significantly increased | IC50 [14]: 7.8 µM | EC50 [15]: 9.2 µM | Mean virus yield CVB5 [16]: 9.25E+07 PFU/mL and 7.64E+07 PFU/mL and 8.20E+07 PFU/mL and 8.13E+07 PFU/mL and 8.84E+07 PFU/mL and 6.70E+07 PFU/mL and 7.30E+07 PFU/mL and 7.92E+07 PFU/mL | EC50 [16]: > 100 µM | Antiviral efficacy against CVB5 [16]: undetectable; also recorded: no antiviral activity was observed | SI (CC50/EC50) WNV [17]: 20.5 | SI (CC50/EC50) USUV [18]: >76.9 | EC50 [19]: 1300 nM | EC50 [20]: 43 µM | EC50 [21]: 2.1 µM | SI (CC50/EC50) WNV [3]: >416

CCCCCCCCCCCCCC1=C([C@H](O)[C@@H](CO)NC(=O)CCCCCCC)C1 [GT-11, N-[(1R,2S)-2-hydroxy-1-hydroxymethyl-2-(2-tridecyl-1-cyclopropenyl)ethyl]octanamide, reference compound]
WNV infection [3]: inhibited WNV infection in a dose-dependent manner

O=C(O)c1cc(O)c(O)c(O)c1 [Gallic acid, 3,4,5-trihydroxybenzoic acid, reference compound]
EC50 [1]: ~100000 nM | CC50 [2]: > 100 µM | WNV yield ([3]; Fig 1B): slight reduction in the WNV yield

CCCCCCCCCCCCCCC[C@@H](O)[C@H](COP(=O)([O-])OCC[N+](C)(C)C)NC(=O)CCCCCCCCCCC [dhSM, N-Lauroyl-D-erythro-sphinganylphosphorylcholine, reference compound]
Cell viability estimated by ATP measurements [7]: without reducing cell viability | WNV infection [3]: significantly reduced WNV infection in a dose-dependent manner
